The values that follow come from ChEMBL document CHEMBL1149734, “Molluscicidal acridone alkaloids from Angostura paniculata: isolation, structures, and synthesis” (J Nat Prod, 1992).

Test [1] deals with HeLa. Nature of the test: Cytotoxicity against human HeLa cells by MTT assay. It is filed as functional, cell-based. On the technique in general: Formazan colour is commonly taken as a measure of viable cells.
Test [2] has as its system Biomphalaria glabrata. The experiment in a line: Molluscicidal activity against Biomphalaria glabrata. The class given is functional.
The test system of test [3] is BT-20. Nature of the test: Growth inhibition of human BT20 cells by MTT assay. The class given is functional, cell-based.

Each structure is given as a SMILES string. Converted amounts (≈) assume the structure as drawn. The source made the active and inactive calls. No cut-off for these calls is given here.

A word on the IC50: it is the concentration at which inhibition is half-maximal. High values mean weaker potency, low ones greater potency. By LC50 is commonly meant the concentration lethal to half of the exposed cells or organisms. Compound `COc1cc2[nH]c3c(OC)c(OC)ccc3c(=O)c2c(OC)c1OC` [CUSCULINE] had a half-maximal inhibitory concentration (IC50) in test [1] of 8.5 mg/L (≈ 24.6 µM). Also, the median lethal concentration (LC50) in test [2] was 20 mg/L (≈ 57.9 µM). Moreover, in test [3], the “growth inhibition (GI)” value was “Active”.

On to `COc1cc2[nH]c3c(OC)c(OC)ccc3c(=O)c2c(O)c1OC` [CUSPANINE], for which the IC50 in test [1] came out at 2.5 mg/L (≈ 7.55 µM). For the same compound, in test [2], the LC50 worked out at 5 mg/L (≈ 15.1 µM). Also, the “growth inhibition (GI)” value in test [3] is “Active”.
